Data on four compounds can be found in patent US7951964B2, “Fluorine-containing boronic acid ester compound and method for producing the same” (Unimatec Co., Ltd., priority 2008, dated 2011).

SMILES strings stand for the structures.

The data set can be described thus: Solubility in the fluorine-containing organic solvent 1,3-bis(trifluoromethyl)benzene (maximum amount giving a homogeneous solution, judged visually). The settings on record: 10 ml of 1,3-bis(trifluoromethyl)benzene, 25° C., stirred, visually measured.
Turning to `CC1(C)OB(c2cc(B3OC(C)(C)C(C)(C)O3)cc(B3OC(C)(C)C(C)(C)O3)c2)OC1(C)C` [1,3,5-tris(4,4,5,5-tetramethyl-1,3,2-dioxaborolan-2-yl)benzene], the “solubility in 1,3-bis(trifluoromethyl)benzene” value (“solubility” below) turned out to be 0.20 g/10 ml solvent.

Turning to `OB(O)c1ccc(B(O)O)cc1` [1,4-benzene diboronic acid], the “solubility” value is “insoluble”.

With `CC1(C)OB(c2ccc(B3OC(C)(C)C(C)(C)O3)cc2)OC1(C)C` [1,4-bis(4,4,5,5-tetramethyl-1,3,2-dioxaborolan-2-yl)benzene], the “solubility” value came out at 0.17 g/10 ml solvent.

As for `CC1(C)OB(c2cc(OCCCC(F)(F)C(F)(F)C(F)(F)C(F)(F)C(F)(F)C(F)(F)F)cc(B3OC(C)(C)C(C)(C)O3)c2)OC1(C)C` [Example, 1-(1H,1H,2H,2H,3H,3H-perfluorononane-1-yloxy)-3,5-bis-(4,4,5,5-tetramethyl-1,3,2-dioxaborolan-2-yl)benzene], the “solubility” value is 5.0 g/10 ml solvent.
